Experimental data reported in US4898940A (priority 1989, dated 1990).

Assays:
[1] = tested on: Lymphocytic leukemia P388; experiment: Antitumor activity against P388 leukemia in mice; format: in vivo, CDF1 and BDF1 mice; settings: P388 leukemia
Description: (§1) Lymphocytic leukemia P388 (CDF1 and BDF1 mice) and lymphoid leukemia L1210 (BDF1 mice) were inoculated by intraperitoneal injection of 0.8 ml diluted ascitic fluid containing 10^6 and 10^5 cells per mouse, respectively. Melanotic melanoma B16 (BDF1 mice) were implanted 0.5 ml of a 10% tumor brei intraperitoneally. Test materials were dissolved in 0.9% saline containing 10% dimethyl sulfoxide and graded doses of them were administered to mice intraperitoneally 24 hours after tumor implantation. Either olivomycin (NSC 38270) or mitomycin C was comparatively tested as a reference compound in the experiments.
Values for percentage ratios of 125 and above indicate significant antitumor effect.

[2] = tested on: lymphoid leukemia L1210; experiment: Antitumor activity against L1210 leukemia in mice; format: in vivo, BDF1 mice; settings: L1210 leukemia, BDF1 mice
Description: as §1

[3] = tested on: Melanotic melanoma B16; experiment: Antitumor activity against B16 melanoma in mice; format: in vivo, BDF1 mice; settings: B16 melanoma, BDF1 mice
Description: as §1

Compound	T/C % of MST ([1]; 0.3 mg/kg/day ip, schedule 1 (once daily on days 1, 4 and 7))	T/C % of MST ([1]; 0.031 mg/kg/day ip, schedule 2 (once daily on days 1 through 9))	T/C % of MST ([1]; 0.063 mg/kg/day ip, schedule 2 (once daily on days 1 through 9))	T/C % of MST ([1]; 0.13 mg/kg/day ip, schedule 2 (once daily on days 1 through 9))	T/C % of MST ([1]; 0.25 mg/kg/day ip, schedule 2 (once daily on days 1 through 9))	T/C % of MST ([1]; 0.5 mg/kg/day ip, schedule 2 (once daily on days 1 through 9))	T/C % of MST ([1]; 1 mg/kg/day ip, schedule 2 (once daily on days 1 through 9))	T/C % of MST ([2]; 0.063 mg/kg/day ip)	T/C % of MST ([2]; 0.13 mg/kg/day ip)	T/C % of MST ([2]; 0.25 mg/kg/day ip)	T/C % of MST ([2]; 0.5 mg/kg/day ip)	T/C % of MST ([2]; 1 mg/kg/day ip)	T/C % of MST ([3]; 0.13 mg/kg/day ip)	T/C % of MST ([3]; 0.25 mg/kg/day ip)	T/C % of MST ([3]; 0.5 mg/kg/day ip)	T/C % of MST ([3]; 1 mg/kg/day ip)	T/C % of MST ([3]; 2 mg/kg/day ip)
Olivomycin A [reference compound]	100%	–	–	–	–	–	–	–	–	–	–	–	–	–	–	–	–
CO[C@@]12[C@H](COC(N)=O)C3=C(C(=O)C(C)=C(N)C3=O)N1C[C@@H]1N[C@@H]12 [Mitomycin C, reference compound]	–	115%	130%	150%	170%	240%	290%	106%	129%	129%	141%	140%	131%	141%	163%	181%	63%
